Results as given in patent US4152425A, “Glucose containing infusion solution” (THERA Gesellschaft fur Patentverwertung mbH, priority 1976, dated 1979).
Where no end group is shown, it is not given here.

Tests used:
[1] = Decomposition of the kinins within the organism; details: in vivo
From the text: This is unexpected and surprising because the phenothiazines were known heretofore only as substances having an anti-depressive effect. This fact could cause one to conclude, however, that they could affect certain oligopeptides which influence the metabolism and would indirectly, i.e., by inhibiting the decomposition of the kinins, improve the glucose assimilation of the tissue.

resting forearm = test: Resting forearm test, 10 milliliter injection into the artery of the arm; assay type: in vivo, human; details: fraction of 1μ gram in 10 milliliter of 10% glucose solution injected into the artery of the arm, versus kinin-free solution
From the text: This illustrates the improved glucose absorption into the tissue of the arm and the muscular system of the hand when the solution of the present invention is employed. Since the effect of this decrease in the glucose level of the blood by the kinin admixture occurs so quickly, it may be assumed that this is caused not by an intensification of the decomposition of the glucose or the metabolism within the cell but by a more rapid penetration of the muscular cell.

spermatozoa = details: cited from earlier work

Compound | decomposition of the kinins within the organism [1] | glucose content in the blood flowing through the vein of the arm (resting forearm) | mobility of the spermatozoa (spermatozoa)
CN(C)CCCN1c2ccccc2Sc2ccc(Cl)cc21 [2-chloro-10-(3-dimethylamino-propyl)-phenothiazine] | inhibited significantly |  | 
RPPGFSPFR [Brady kinin, (NH2) arginine - proline - proline - glycine - phenylalanine - serine - proline - phenylalanine - arginine (COOH)] |  | pronounced decrease | further the mobility of the spermatozoa
kallidin: decapeptide kinin differing from Brady kinin only by a lysine residue at the amino end (KRPPGFSPFR; Lysyl-bradykinin; UniProt P01042 380-389, looked up) |  |  | further the mobility of the spermatozoa
